Laboratory results from article PMC10283009, “Cellular photo(geno)toxicity of gefitinib after biotransformation” (Frontiers in Pharmacology, 2023).
“Also recorded” adds a separate entry of the source. Structures can show the parent of a compound that is named as a salt. Where two headings read alike, the source gives them in different places.

Key:
HaCaT cells [1] = test: cells; details: for Phototoxicity classification according to OECD 432 Guide: PIF <2 no phototoxicity, 2-5 probable phototoxicity, >5 phototoxicity, HaCaT NRU
Description: Chlorpromazine (CPZ) and sodium dodecyl sulfate (SDS) served as the positive phototoxic and negative non-phototoxic controls, respectively. […] Therefore, the phototoxicity behavior of the metabolites was studied in parallel with the parent drug.
Concisely, for each compound, two 96-well plates were seeded at a density of 2.0 × 10^4 cells/well. […] All plates were incubated for 1 h in dark conditions. Then, for each sample, in the presence of ice, one plate was irradiated with a non-cytotoxic dose of 5 J/cm^2 UVA (UVA Light), whereas the other was kept in a dark box (Dark). Next, drug solutions were replaced with fresh DMEM medium, and plates were further incubated overnight. Next day, neutral red solution (50 μg/mL) was added into the wells and incubated for 2 h at 37°C. […] Lastly, the absorbance of the plates was read at 550 nm on a Synergy H1 microplate reader. […] Afterwards, photoirritation factor (PIF) values were calculated using the following equation: PIF=IC50 Dark / IC50 UVA Light

[2] = target: T1, human serum albumin (HSA) (Homo sapiens, UniProt P02768); test: Photoinduced protein oxidation assay (carbonyl content, DNPH derivatization); details: compound 100 µM, HSA 5 mg/mL in PBS, UVA 15 J/cm^2
[3] = Photosensitized lipid peroxidation (TBARS assay); details: compound 100 µM, linoleic acid 1 mM in PBS, UVA 15 J/cm^2 vs dark
[4] = Fluorescence emission spectra in different media; format: physicochemical; parameters: unit not given here; details: excitation at 320 nm
Description: (§1) Absorption spectra were recorded in a JASCO V-760 spectrophotometer using 10 × 10 mm^2 quartz cuvettes at room temperature. […] Fluorescence spectra (λ exc = 320 nm) were recorded using a Synergy H1 multi-mode microplate reader.

[5] = Fluorescence quantum yield of compounds internalized in HaCaT cells; format: physicochemical; details: inside HaCaT cells, excitation at 320 nm, anthracene as standard
Description: as §1
In parallel, fluorescence quantum yield (ΦF) of the internalized compounds were also determined, by comparison with anthracene as standard (Φ F = 0.27 in ethanol). […]

[6] = Triplet excited-state quenching by DMBA (laser flash photolysis); format: physicochemical; details: deaerated acetonitrile, 355 nm laser excitation, DMBA 0.1-10 mM
Description: A pulsed Nd:YAG L52137 V LOTIS TII laser (Sp Lotis Tii, Minsk, Belarus) was used for the excitation at 355 nm. The single pulses were ∼10 ns of duration, and the energy was ∼12 mJ/pulse. Laser flash photolysis (LFP) equipment consisted of a pulsed laser, a 77250 Oriel monochromator, and an oscilloscope DP04054 Tektronix. The output signal from the oscilloscope was transferred to a personal computer for processing. The DMOR-GFT metabolite was dissolved in acetonitrile up to an absorbance of 0.3 at 355 nm. Solutions were deaerated by bubbling nitrogen through the solution during 15 min. The rate constant of triplet excited-state quenching by 1,4-dihydro-1,2-dimethylbenzoic acid (DMBA) was determined using the Stern–Volmer Equation: 1/τ=1/τq+kq DMBA
Where τ and τ q are the lifetime of transient species in the presence and absence of DMBA, respectively. Concentrations between 0.1 and 10 mM were used for DMBA. This compound was prepared through Birch reduction following standard procedures ([Andreu et al., 2011]).

[7] = Singlet oxygen production by time-resolved NIR emission at 1,270 nm; format: physicochemical
HaCaT cells [8] = test: Alkaline comet assay (nuclear DNA damage and repair); format: cell-based; details: 100 µM
Description: The comet assay (single-cell gel electrophoresis) was performed as already detailed in [Garcia-Lainez et al. (2018)] in order to detect both single and double strand breaks and alkaline labile sites on nuclear DNA. […] The reference photogenotoxic control of this assay was CPZ (10 μM). Afterwards, one plate was irradiated under 2 J/cm^2 UVA light dose (4 J/cm^2 for DMT-GFT and DMOR-GFT) while the other one was kept in darkness as the negative control. Later, both irradiated and non-irradiated cells were detached from the plates and 100 µL of cell suspension was mixed with 100 µL 1% low melting point agarose solution and loaded onto FLARE® slides. Then, slides were incubated on ice to allow drop jellification. Finally, slides were embedded in a box with lysis buffer to initiate the lysis of cells and incubated overnight at 4°C. Next day, slides were placed in electrophoresis tank filled with 1 L of cold alkaline electrophoresis buffer (0.2 M NaOH, 1 mM EDTA in distilled water and pH ≥ 13). The electrophoresis was run at 21 V (1 V/cm) for 30 min and kept at 4°C. Then, slides were washed twice with MilliQ water and DNA fixation accomplished by a serial dehydration with 70% ethanol and 100% ethanol solutions during 5 min and followed by drying for 2 h at 37°C. Nuclear DNA was stained with a SYBR Gold® bath (1:10,000 in Tris-EDTA buffer) for 30 min at 4°C and slides were kept in darkness until its visualization. Comets (nucleoids and tails) were visualized using a fluorescence microscope (Leica DMI 4000B). DNA damage was quantified by counting and analyzing at least 100 DNA comets. Finally, total comet score (TCS) was obtained with the classification of six DNA damage types ([Møller, 2006]) applying the formula: Cl. 0×0+Cl. 1×1+Cl. 2×2+Cl. 3×3+[Cl. 4×4+Cl. 5×5+Cl. 6×6]/6
Where Cl. is the class of DNA damage according to the visual scoring.
The results are expressed in 1–100 arbitrary units, where class 0 comets are comets with no DNA damage while class 6 comets represent comets with maximum DNA damage. Two-way ANOVA (Analysis of Variance) method was used for the statistical analysis of the data.

[9] = tested on: caspase-3/7 activity in HaCaT cells; test: Caspase 3/7 activity assay (Apo-ONE); format: cell-based, human; details: after UVA 5 J/cm^2, two concentrations up to about the IC50 under UVA
Description: HaCaT cells were seeded in 96-well plates at a concentration of 2 × 10^5 cell/mL. The next day, cells, in fresh DMEM medium without phenol red, were treated with the compounds at two different concentrations representing 100% and 50% of cell viability according to NRU dose-response curves. After 1 h incubation at 37°C, one plate was irradiated with UVA light (5 J/cm^2) and the other one was kept in dark conditions. Later, plates were incubated for another 24 h at 37°C with fresh DMEM medium. Then, samples were analyzed by the Apo-ONE Homogeneous Caspase-3/7 assay according to the manufacturer’s instructions. Immediately after, the fluorescence was monitored at 0 h and 4 h after the addition of the substrate using Synergy H1 multi-mode microplate reader (excitation at 499 nm and emission at 521 nm). The data was subjected to statistical analysis using the Two-way ANOVA (Analysis of Variance).

HaCaT cells [10] = test: Lactate dehydrogenase release assay (CytoTox-ONE); format: cell-based, human; details: after UVA 5 J/cm^2, concentration near the IC50
Description: Lactate Dehydrogenase activity assay was performed according to the manufacturer´s protocol. Briefly, HaCaT cells were seeded in 96-well plates (2 × 10^5 cell/mL) and incubated for 24 h. Then, after replacement of the medium with fresh no-phenol red DMEM, cells were incubated for 1 h with the compounds in two different concentrations representing 100% and 50% of cell viability according to NRU dose-response curves. Next, one plate was irradiated with UVA light (5 J/cm^2) while the other one was kept in dark conditions. Next day, samples were analyzed by CytoTox-ONE™ Homogeneous Membrane Integrity Assay and a lysis solution (9% weight/volume solution of Triton X-100 in water) was used to determine the maximum amount of LDH present. The fluorescence was measured 10 min after the addition of the substrate using Synergy H1 multi-mode microplate reader (excitation at 560 nm and emission at 590 nm). The percent of LDH release was determined following the following equation: % LDH release=Experimental LDH release/Maximum LDH release x 100

[11] = target: T1, human serum albumin (HSA); parameters: purchased Sigma-Aldrich (Madrid, Spain); method as in Tamarit et al., 2021; details: GFT 100 µM, HSA 5 mg/mL in PBS, UVA 15 J/cm^2; carbonyl content value of GFT taken from the literature; ref Tamarit et al., 2021; cited from earlier work
[12] = parameters: method as in PMID 30069771; details: standard, in ethanol; ref [26]; cited from earlier work
[13] = Homo sapiens, HaCaT, 1 h, read-out: IC50 dark
[14] = Homo sapiens, HaCaT, light or radiation study, 1 h, read-out: IC50 UVA light
[15] = PIF = IC50 Dark / IC50 UVA Light, HaCaT, UVA 5 J/cm^2
[16] = in presence of calf thymus DNA (ctDNA)
[17] = in presence of methyl linoleate (ML)

T1 sequence (P02768 25-609): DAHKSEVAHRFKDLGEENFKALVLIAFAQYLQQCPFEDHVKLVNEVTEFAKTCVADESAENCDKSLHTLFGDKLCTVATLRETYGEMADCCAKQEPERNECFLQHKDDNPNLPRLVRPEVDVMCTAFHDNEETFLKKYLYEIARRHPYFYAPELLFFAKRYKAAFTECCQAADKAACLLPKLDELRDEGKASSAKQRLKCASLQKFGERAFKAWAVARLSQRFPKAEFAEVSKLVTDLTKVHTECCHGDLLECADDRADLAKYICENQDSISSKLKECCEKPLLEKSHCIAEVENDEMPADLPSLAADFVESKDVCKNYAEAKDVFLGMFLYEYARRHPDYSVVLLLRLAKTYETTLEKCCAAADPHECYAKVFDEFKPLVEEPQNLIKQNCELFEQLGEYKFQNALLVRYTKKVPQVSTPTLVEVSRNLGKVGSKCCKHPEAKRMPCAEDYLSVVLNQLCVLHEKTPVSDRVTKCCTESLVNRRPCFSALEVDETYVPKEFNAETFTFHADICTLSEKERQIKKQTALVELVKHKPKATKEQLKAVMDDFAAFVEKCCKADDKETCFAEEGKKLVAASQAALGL

CN(C)CCCN1c2ccccc2Sc2ccc(Cl)cc21 [CPZ, Chlorpromazine hydrochloride, reference compound]
IC50 (HaCaT cells [1]; [13]): 80 ± 17 µM
IC50 (HaCaT cells [1]; [14]): 4 ± 0.9 µM
Photoirritant factor (PIF) (HaCaT cells [1]; [15]): 20

COc1cc2ncnc(Nc3ccc(O)c(Cl)c3)c2cc1OCCCN1CCOCC1 [DF-GFT, 4-Defluoro-4-hydroxy gefitinib]
IC50 (HaCaT cells [1]; [13]): 1020 µM
IC50 (HaCaT cells [1]; [14]): 1100 µM
Phototoxicity classification according to OECD 432 Guide (HaCaT cells [1]): non-phototoxic; also recorded: negligible phototoxic activity
Photoirritant factor (PIF) (HaCaT cells [1]; [15]): ~1

COc1cc2ncnc(Nc3ccc(F)c(Cl)c3)c2cc1O [DMOR-GFT, O-Demorpholinopropyl gefitinib]
Protein photooxidation (carbonyl content of HSA) [2]: significant oxidative effect towards HSA
Photosensitized lipid peroxidation (TBARS content) [3]: remarkable enhancement in photosensitized lipid peroxidation comparable to the reference
Emission (λmax) ([4]; in presence of HSA): 432
Emission (λmax) [4, 16]: 448
Emission (λmax) [4, 17]: 384
IC50 (HaCaT cells [1]; [13]): 144 ± 6 µM
IC50 (HaCaT cells [1]; [14]): 3 ± 0.6 µM
Photoirritant factor (PIF) (HaCaT cells [1]; [15]): 48
Fluorescence quantum yield (ΦF) [5]: 0.1
Rate constant (kq) of triplet excited state quenching by DMBA [6]: 1.96 M^−1·s^−1 × 10^9 M^−1·s^−1
Singlet oxygen quantum yield (Φ Δ) [7]: ≤ 0.1
Percentage of DNA damage (comet assay) (HaCaT cells [8]; UVA light 5 min (2 J/cm^2)): did not promote DNA damage
Percentage of DNA damage (comet assay) (HaCaT cells [8]; UVA light 10 min (4 J/cm^2)): around 45%
Caspase-3/7 activity (relative change) [9]: concentration dependent activation of caspase-3/7

Oc1cc2ncnc(Nc3ccc(F)c(Cl)c3)c2cc1OCCCN1CCOCC1 [DMT-GFT, O-Demethyl gefitinib]
LDH release (HaCaT cells [10]): did not show any effect on the LDH release
Protein photooxidation (carbonyl content of HSA) [2]: did not exhibit any lipid or protein oxidative damage
Photosensitized lipid peroxidation (TBARS content) [3]: neither GFT nor DMT-GFT showed detectable changes
Emission (λmax) [4, 16]: 450
Emission (λmax) [4, 17]: 384
IC50 (HaCaT cells [1]; [13]): 34 ± 3 µM
IC50 (HaCaT cells [1]; [14]): 5 ± 0.1 µM
Phototoxicity classification according to OECD 432 Guide (HaCaT cells [1]): can still be considered phototoxic
Photoirritant factor (PIF) (HaCaT cells [1]; [15]): 7
Fluorescence quantum yield (ΦF) [5]: 0.04
Percentage of DNA damage (comet assay) (HaCaT cells [8]; UVA light 10 min (4 J/cm^2)): around 54%
Caspase-3/7 activity (relative change) [9]: caspase-3/7 activity was similar between the concentration of 2.5 µM and the concentration corresponding to IC50

COc1cc2ncnc(Nc3ccc(F)c(Cl)c3)c2cc1OCCCN1CCOCC1 [GFT, Gefitinib hydrochloride, reference compound]
LDH release (HaCaT cells [10]): small but significant percent of LDH-release
Protein photooxidation (carbonyl content of HSA) [11]: significant oxidative effect towards HSA
Fluorescence quantum yield (ΦF) [5]: 0.07
Singlet oxygen quantum yield (Φ Δ) [7]: ≤ 0.1
Percentage of DNA damage (comet assay) (HaCaT cells [8]; UVA light 5 min (2 J/cm^2)): around 72%

CCCCCCCCCCCCOS(=O)(=O)[O-].[Na+] [SDS, sodium dodecyl sulfate, reference compound]
Photoirritant factor (PIF) (HaCaT cells [1]): 1
IC50 (HaCaT cells [1]; read-out: IC50 UVA light, HaCaT, neutral red uptake, UVA 5 J/cm^2, 1 h incubation with compound): 136 ± 23 µM
IC50 (HaCaT cells [1]; read-out: IC50 dark, HaCaT, neutral red uptake, kept in dark, 1 h incubation with compound): 133 ± 31 µM

c1ccc2cc3ccccc3cc2c1 [anthracene]
Fluorescence quantum yield (ΦF) [12]: 0.27
